Assay results as given in patent US10543178B2, “Dosage forms and related therapies” (PhilERA New Zealand Limited, priority 2002, dated 2020).
Where “and” joins values, the source holds several entries; their conditions need not be identical. Identical values can stand only once. Entries after “also recorded” stand apart in the source; their conditions may differ. Like-named read-outs stand apart in the source and are kept apart here.

What was measured:
[1] = Induction of diabetes by streptozotocin; type: in vivo, rat; details: three days following STZ injection, 55 mg·kg^−1 i.v., mean ± SEM
Excerpt: In order to induce diabetes, male Wistar rats (n=28, 303±2.9 g) were divided randomly into diabetic and nondiabetic groups. […] Nondiabetic animals received an equivalent volume of saline. […] Blood glucose and body weight were measure at day 3 following STZ/saline injection and then weekly throughout the study. Diabetes was identified by polydipsia, polyuria and hyperglycemia (>11 mmol·l^−1, Advantage II, Roche Diagnostics, NZ Ltd).

[2] = reported, Kodama et al. 1997; cited from earlier work
[3] = Excerpt: All animals were fasted overnight prior to surgery but continued to have ad libitum access to deionized water. […] The femoral artery and vein were cannulated with a solid-state blood pressure transducer (Mikrotip™ 1.4F, Millar Instruments, Texas, USA) and a saline filled PE 50 catheter respectively. The ureters were exposed via a midline abdominal incision, cannulated using polyethylene catheters (external diameter 0.9 mm, internal diameter 0.5 mm) and the wound sutured closed. The trachea was cannulated and the animal ventilated at 70-80 breaths·min^−1 with air supplemented with 02 (Pressure Controlled Ventilator, Kent Scientific, Connecticut, USA). The respiratory rate and end-tidal pressure (10-15 cmH2O) were adjusted to maintain end-tidal CO2 at 35-40 mmHg (SC-300 CO2 Monitor, Pryon Corporation, Wisconsin, USA). Body temperature was maintained at 37° C. throughout surgery and the experiment by a heating pad. Estimated fluid loss was replaced with intravenous administration of 154 mmol·l^−1 NaCl solution at a rate of 5 ml·kg^−1·h^−1.
(§1) Following surgery and a 20 min stabilization period, the experimental protocol was started. […] Control animals received an equivalent volume of saline. Urine was collected in 15 min aliquots throughout the experiment in pre-weighed polyethylene epindorf tubes. At the end of the experiment a terminal blood sample was taken by cardiac puncture and the separated serum stored at −80° C. until future analysis. Hearts were removed through a rapid mid-sternal thoracotomy and processed as described below.
Urine and tissue analysis was carried out as follows. Instrumentation: A Perkin Elmer (PE) Model 3100 Atomic Absorption Spectrophotometer equipped with a PE HGA-600 Graphite Furnace and PE AS-60 Furnace Autosampler was used for Cu and Fe determinations in urine. Deuterium background correction was employed. A Cu or Fe hollow-cathode lamp (Perkin Elmer Corporation) was used and operated at either […]. The 324.8 nm atomic line was used for Cu and the 248.3 nm atomic line for Fe. The slit width for both Cu and Fe was 0.7 nm. Pyrolytically coated graphite tubes were used for all analyses. The injection volume was 20 μL. A typical graphite furnace temperature program is shown below:
Urine: Urine was collected in pre-weighed 1.5 ml micro test tubes (eppendorf). After reweighing, the urine specimens were centrifuged and the supernatant diluted 25:1 with 0.02 M 69% Aristar grade HNO3. The sample was stored at 4° C. prior to GF-AAS analysis. If it was necessary to store a sample for a period in excess of 2 weeks, it was frozen and kept at −20° C. Serum: Terminal blood samples were centrifuged and serum treated and stored as per urine until analysis. From the trace metal content of serum from the terminal blood sample and urine collected over the final hour of the experiment, renal clearance was calculated using the following equation: […]
Statistical analyses were carried out as follows. All values are expressed as mean±SEM and P values <0.05 were considered statistically significant. Student's unpaired t-test was initially used to test for weight and glucose differences between the diabetic and control groups. For comparison of responses during drug exposure, statistical analyses were performed using analysis of variance (Statistics for Windows v.6.1, SAS Institute Inc., California, USA). Subsequent statistical analysis was performed using a mixed model repeated measures ANOVA design (see Example 4).

[4] = remark: listed apart in the source
Description: as §1
Mean arterial pressure (MAP), heart rate (HR, derived from the MAP waveform) oxygen saturation (Nonin 8600V Pulse Oximeter, Nonin Medical Inc., Minnesota, USA) and core body temperature, were all continuously monitored throughout the experiment using a PowerLab/16s data acquisition module (AD Instruments, Australia).
Following surgery and a 20 min stabilization period, the experimental protocol was started. […] Urine was collected throughout the experiment in 15 min aliquots.

[5] = normal and diabetic rats, acute i.v. increasing doses
Description: Methods were carried out as follows. Spectrophotometric analysis was conducted as described in Example 2. Cu, Fe and Zn in tissue digests were determined at Hill Laboratories (Hamilton, New Zealand) using either a PE Sciex Elan-6000 or PE Sciex Elan-6100 DRC ICP-MS.
Sample pre-treatment was carried out as follows. Heart: Following removal from the animal, the heart was cleaned of excess tissue, rinsed in buffer to remove excess blood, blotted dry and a wet ventricular weight recorded. Using titanium instruments a segment of left ventricular muscle was dissected and placed in a pre-weighed 5.0 ml polystyrene tube. The sample was freeze-dried overnight to constant weight before 0.45 ml of 69% Aristar grade HNO3 was added. The sample tube was heated in a water bath at 65° C. for 60 minutes. The sample was brought to 4.5 ml with Milli-Q H2O. The resulting solution was diluted 2:1 in order to reduce the HNO3 concentration below the maximum permitted for ICP-MS analysis.

STZ diabetic rats [6] = details: LCM and TEM
Excerpt: Methods were as follows. Following functional analysis, LV histology was studied by laser confocal (LCM; FIG. 29a-d) and transmission electron microscopy (TEM; FIG. 29e-h). For LCM, LV sections were co-stained with phalloidin to visualize actin filaments, and β1-integrin as a marker for the extracellular space. Ding B, et al., “Left ventricular hypertrophy in ascending aortic stenosis in mice: anoikis and the progression to early failure,” Circulation 101:2854-2862 (2000).
For each treatment, 5 sections from each of 3 hearts were examined by both LCM and TEM. For LCM, LV sections were fixed (4% paraformaldehyde, 24 h); embedded (6% agar); vibratomed (120 pm, Campden); stained for f-actin (Phalloidin-488, Molecular Probes) and β1-integrin antibody with a secondary antibody of goat anti-rabbit conjugated to CY5 (1:200; Ding B, et al., “Left ventricular hypertrophy in ascending aortic stenosis in mice: anoikis and the progression to early failure,” Circulation 101:2854-2862 (2000)); and visualised (TCS-SP2, Leica). For TEM, specimens were post-fixed (1:1 v/v 1% w/v 0s0 M 0s0 M PBS); stained (aqueous uranyl acetate (2% w/v, 20 mm) then lead citrate (3 mm)); sectioned (70 nm); and visualized (CM-12, Phillips).

[7] = remark: listed apart in the source
Excerpt: Methods were as follows. Human studies were approved by institutional ethics and regulatory committees. We measured urinary metal excretion in human males with T2DM or matched non-diabetic controls, baseline information on which is shown in Table 9, in a randomized, double blind, placebo-controlled trial. Males with uncomplicated T2DM (Table 9) underwent 12-d elemental balance studies in a fully residential metabolic unit. All foods and beverages were provided. Total daily intake (method of double diets) and excretion (urinary and fecal) of trace elements (Ca, Mg, Zn, Fe, Cu, Mn, Mo, Cr and Se) were determined (ICP MS).

[8] = T2DM and controls
Description: Total metal balance studies were performed in a residential metabolic unit. Total fecal outputs were collected daily for 12 days, freeze dried, and analyzed by ICP-MS for content of Cu, Fe, Zn, Ca, Mg, Mn, Cr, […] and Se.

[9] = 0.67-670 mg/ml in 0.9% saline, four months at 4° C.
Description: The concentrations of the stock formulations were: 0.67 mg/ml, 6.7 mg/ml, 67 mg/ml, and 670 mg/ml. The formulation was then administered to the rats in doses of 0.1 mg/kg, 1 mg/kg, 10 mg/kg, and 100 mg/kg to the animals respectively.

[10] = 15 days
Description: One sample of the solution was stored in the dark at 4° C. and 21° C. in the dark and a third sample was stored at 21° C. in daylight.
The Ultraviolet-visible spectrum of the formulation was initially measured at day 0 and then at day 15. 20 μl aliquots of sample solutions were taken at day 15. For each aliquot 960 μl of 50 mM TRIS buffer and 20p aliquot of Copper Nitrate standard (100 mM—Orion Research Inc) were added.

diabetic Wistar rats = details: six months of treatment
[11] = cited from earlier work
STZ diabetic rats [12] = experiment: Isolated working heart: cardiac function after 7 weeks oral trientine in drinking water; details: for Heart weight / Left Ventricular wall thickness / Left Ventricular wall thickness per BW / Heart weight (g)/BW (g): trientine weeks 7-13
humans with T2DM = experiment: 6-month randomized double-blind placebo-controlled trial of oral trientine, LV mass by cardiac MRI; details: 6 months' trientine therapy
Description: Subjects (30-70 y) who provided written informed consent were eligible for inclusion if they had: T2DM with HbAu1c>7%; cardiac ejection fraction (echocardiography) ≥45% with evidence of diastolic dysfunction but no regional wall-motion anomalies; no new medications for more than 6 months with no change of β-blocker dose; normal electrocardiogram (sinus rhythm, normal PR Interval, normal T wave and QRS configuration, and isoelectric ST segment); and greater than 90% compliance with single-blinded placebo therapy during a 2-w run-in period. Women were required to be post-menopausal, surgically sterile, or non-lactating and non-pregnant and using adequate contraception.
Before randomization, potentially eligible subjects entered a 4-w single blind run-in phase of two placebo-capsules twice-daily and underwent screening echocardiography, being excluded if regional wall motion abnormalities or impaired LV systolic function (ejection fraction <50%) were detected. In addition, LV diastolic filling was assessed using mitral inflow Doppler (with pre-load reduction) to ensure patients had abnormalities of diastolic filling; no patient with normal mitral filling proceeded to randomisation. […]
At baseline and following 6 months' treatment, LV mass was determined using cardiac MRI, performed in the supine position with the same 1.5 T scanner (Siemens Vision) using a phased array surface coil. […]

For CN(N=O)C(=O)N[C@H]1C(O)O[C@H](CO)[C@@H](O)[C@@H]1O (mixture of isomers) [STZ, streptozotocin], the Blood glucose [1] was 25 ± 2 mmol/L.
In the case of CC(=O)NCCNCCNCCN.Cl [N-acetyl-trientine hydrochloride], the “Chelating activity compared with trientine dihydrochloride” value [2] is given as “significantly lower”.
With NCCNCCNCCN [trientine, N,N′-Bis(2-aminoethyl)-1,2-ethanediamine] the “Iron excretion versus equivalent volume of saline” value ([3]; diabetic and nondiabetic rats) was “not greater”, the “Total iron excretion versus saline” value ([3]; diabetic and nondiabetic rats) was “not different” and the “Urinary Cu excretion versus equivalent volume of saline” value ([3]; diabetic and nondiabetic rats, all doses 0.1-100 mg/kg i.v.) was “excreted more Cu”. The “Cu excretion in the urine versus saline” value ([3]; diabetic rats, 0.1 mg·kg^−1 i.v. (lowest dose)) was “significantly increased”, the “Copper excretion per gram of body weight, diabetic versus nondiabetic animals” value ([3]; in response to each dose of drug) was “significantly greater” and the “Total copper excreted over the entire duration of the experiment versus saline controls” value ([3]; nondiabetic and diabetic rats) was “significantly increased”. For the same compound, the “Urine excretion versus equivalent volume of saline” value ([3]; nondiabetic rats, 100 mg·kg^−1 i.v.) was “increased”, the “Form of urinary Cu by electron paramagnetic resonance spectroscopy” value ([3]; urine of drug-treated animals) was “mainly complexed as trientine-Cu^II” and the “Time to recovery from blood pressure fall” value ([4]; 100 mg/kg i.v.) was 10 min. For the same compound, the “Effect on blood pressure” value ([4]; acute i.v. 0.1, 1, 10 and 100 mg/kg) was “no significant effect”, the “Effect of infusion on MAP and HR” value ([4]; doses below the highest dose) was “no effect” and the “Time for MAP to return to pre-dose levels” value ([4]; highest dose 100 mg/kg i.v.) was at most 10 min. For the same compound, the “Maximum decrease in MAP (blood pressure fall)” value ([4]; highest dose 100 mg/kg i.v., 2 min following administration, 100 mg/kg) was 19±4 mmHg and 19+/−4 mmHg, the “Effect on the copper content of cardiac tissue” value [5] was “no significant effect” and the “Myocardium from trientine-treated nondiabetics” value (STZ diabetic rats [6]) was “appeared normal”. For the same compound, the “Trientine-evoked urinary Fe excretion” value ([7]; T2DM and controls, oral 2.4 g) was “no corresponding increase”, the “Urinary Cu versus placebo” value ([7]; both groups (T2DM and controls), day 7, oral 2.4 g) was “increased” and the “Cu excretion from T2DM versus non-diabetic controls following trientine-treatment” value ([7]; day 7, 2.4-g oral dose, P<0.05) was “significantly greater”. The “Effect on fecal outputs of Zn, Fe, Ca, Mg, Mn, Cr, Mb or Se” value [8] was “Neither diabetes nor drug had measurable effects”, the “Stability on storage (efficacy as copper chelator)” value [9] was “remains active as a copper chelator” and the “Stability on storage (efficacy as copper chelator)” value ([9]; listed as trientine hydrochloride) was “without appreciable deterioration in efficacy”. For the same compound, the “Change in ability to chelate copper on storage” value ([10]; 100 mM in deionized water, 4° C. dark, 21° C. dark, 21° C. daylight) was “no detectable change”, the “Effect of room light on copper chelation” value ([10]; 100 mM solution, 21° C. in daylight) was “no detectable detrimental effect” and the “Protection of the heart from development of diabetic damage (cardiomyopathy), as judged by histology” value (diabetic Wistar rats) was “appears to protect”. The “Bioavailability of the active species after oral administration” value [11] was under 10%, the “Cardiac function versus untreated diabetic controls” value (STZ diabetic rats [12]; STZ diabetic rats, oral trientine 7 weeks) was “improved; also recorded: global improvement in cardiac function” and the Heart weight (STZ diabetic rats [12]; STZ/D7 diabetic rats) was 1.18 ± 0.24 g. For the same compound, the “Left Ventricular wall thickness” value (STZ diabetic rats [12]; STZ/D7 diabetic rats) was 3.79 ± 0.52 mm, the “Left Ventricular wall thickness per BW” value (STZ diabetic rats [12]; STZ/D7 diabetic rats) was 0.0127 ± 0.0027 mm/g and the “Heart weight (g)/BW (g)” value (STZ diabetic rats [12]; STZ/D7 diabetic rats, P < 0.05 vs STZ) was 0.0041 ± 0.0005 g/g. The Heart weight (STZ diabetic rats [12]; Sham/D7 non-diabetic rats) was 1.58 ± 0.05 g, the “Heart weight (g)/BW (g)” value (STZ diabetic rats [12]; Sham/D7 non-diabetic rats) was 0.0028 ± 0.0001 g/g and the “Left Ventricular wall thickness” value (STZ diabetic rats [12]; Sham/D7 non-diabetic rats) was 4.03 ± 0.1 mm. The “Left Ventricular wall thickness per BW” value (STZ diabetic rats [12]; Sham/D7 non-diabetic rats) was 0.0072 ± 0.0003 mm/g, the “Blood glucose profile versus untreated comparison group” value (STZ diabetic rats [12]; both treated groups, p = ns) was “no difference” and the “Indicators for ventricular contraction and relaxation versus untreated diabetic group” value (STZ diabetic rats [12]; drug treated diabetic group) was “significantly improved”. For the same compound, the “Trientine treated diabetic hearts still functioning” value (STZ diabetic rats [12]; increasing after-load, constant pre-load, when 50% of the untreated diabetic hearts had failed) was “about 90%”, the “Effects on cardiac performance of normal animals” value (STZ diabetic rats [12]; non-diabetic rats, drug treatment) was “no adverse effects” and the Cardiac output (STZ diabetic rats [12]; pre-load increased, after-load held constant, treated diabetic rats) was “restored to Sham values”. The Drug-related adverse events (humans with T2DM) was “No significant drug-related adverse events”.
